Data: PubChem BioAssay (NCI)
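96-well plates; 48 h exposure; 5 concentrations. Endpoints by linear interpolation between flanking doses. Not reached: highest tested concentration assigned. The concentration for 50% growth inhibition is given as GI50. At the TGI there is no net growth.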

Columns and labels:
Assay in all cases: inhibition of tumour cell growth, NCI panel, 48 h
PC-3 prostate = tested on: PC-3 prostate
HT29 colon = tested on: HT29 colon
HCT-116 colon = tested on: HCT-116 colon
M14 melanoma = tested on: M14 melanoma
A549 NSCLC = tested on: A549 NSCLC
MCF7 breast = tested on: MCF7 breast
T-47D breast = tested on: T-47D breast
K-562 leukemia = tested on: K-562 leukemia
SK-MEL-2 melanoma = tested on: SK-MEL-2 melanoma
NCI-H226 lung = tested on: NCI-H226 lung
786-0 renal = tested on: 786-0 renal
MOLT-4 leukemia = tested on: MOLT-4 leukemia
CCRF-CEM leukemia = tested on: CCRF-CEM leukemia
HS 578T breast = tested on: HS 578T breast
DU-145 prostate = tested on: DU-145 prostate
EKVX NSCLC = tested on: EKVX NSCLC
HL-60(TB) leukemia = tested on: HL-60(TB) leukemia
SNB-75 CNS = tested on: SNB-75 CNS
HOP-62 NSCLC = tested on: HOP-62 NSCLC
UO-31 renal = tested on: UO-31 renal
SK-MEL-28 melanoma = tested on: SK-MEL-28 melanoma
SR leukemia = tested on: SR leukemia
RXF 393 renal = tested on: RXF 393 renal
HOP-92 NSCLC = tested on: HOP-92 NSCLC
OVCAR-4 ovarian = tested on: OVCAR-4 ovarian
SNB-19 CNS = tested on: SNB-19 CNS
SN12C renal = tested on: SN12C renal
HCT-15 colon = tested on: HCT-15 colon
OVCAR-8 ovarian = tested on: OVCAR-8 ovarian
SK-OV-3 ovarian = tested on: SK-OV-3 ovarian
COLO 205 colon = tested on: COLO 205 colon
NCI-H460 lung = tested on: NCI-H460 lung
MDA-MB-435 = tested on: MDA-MB-435
LOX IMVI melanoma = tested on: LOX IMVI melanoma
OVCAR-3 ovarian = tested on: OVCAR-3 ovarian
TK-10 renal = tested on: TK-10 renal
IGROV1 ovarian = tested on: IGROV1 ovarian
RPMI-8226 leukemia = tested on: RPMI-8226 leukemia
SW-620 colon = tested on: SW-620 colon
U251 CNS = tested on: U251 CNS
KM12 colon = tested on: KM12 colon
UACC-257 melanoma = tested on: UACC-257 melanoma
BT-549 breast = tested on: BT-549 breast
MDA-MB-231 breast = tested on: MDA-MB-231 breast
ACHN renal = tested on: ACHN renal
CAKI-1 renal = tested on: CAKI-1 renal
NCI-H23 lung = tested on: NCI-H23 lung
UACC-62 melanoma = tested on: UACC-62 melanoma
NCI-H522 lung = tested on: NCI-H522 lung
OVCAR-5 ovarian = tested on: OVCAR-5 ovarian
A498 renal = tested on: A498 renal
SF-295 CNS = tested on: SF-295 CNS
MALME-3M melanoma = tested on: MALME-3M melanoma
SK-MEL-5 melanoma = tested on: SK-MEL-5 melanoma
SF-268 CNS = tested on: SF-268 CNS
HCC-2998 colon = tested on: HCC-2998 colon
NCI/ADR-RES ovarian = tested on: NCI/ADR-RES ovarian

CN(C)CCN1C(=O)c2c(c3c4ccccc4n4c3c3c2c2ccccc2n3C2CC(O)C(O)C4(C)O2)C1=O (centres undefined)
GI50 (PC-3 prostate): 2.05 µM | TGI (PC-3 prostate): 9.48 µM | GI50 (HT29 colon): 1.04 µM | TGI (HT29 colon): 7.54 µM | GI50 (HCT-116 colon): 0.626 µM | TGI (HCT-116 colon): 6.71 µM | GI50 (M14 melanoma): 1.71 µM | TGI (M14 melanoma): 7.47 µM | GI50 (A549 NSCLC): 0.643 µM | TGI (A549 NSCLC): 7.4 µM | GI50 (MCF7 breast): 0.58 µM | TGI (MCF7 breast): 7.44 µM | GI50 (T-47D breast): 2.39 µM | TGI (T-47D breast): 12.1 µM | GI50 (K-562 leukemia): 0.84 µM | TGI (K-562 leukemia): 7.54 µM | GI50 (SK-MEL-2 melanoma): 2.97 µM | TGI (SK-MEL-2 melanoma): 9.2 µM | GI50 (NCI-H226 lung): 2.26 µM | TGI (NCI-H226 lung): 29 µM | GI50 (786-0 renal): 1.93 µM | TGI (786-0 renal): 8.37 µM | GI50 (MOLT-4 leukemia): 0.209 µM | TGI (MOLT-4 leukemia): 10.9 µM | GI50 (CCRF-CEM leukemia): 1.59 µM | TGI (CCRF-CEM leukemia): 14.4 µM | GI50 (HS 578T breast): 2.34 µM | TGI (HS 578T breast): 12 µM | GI50 (DU-145 prostate): 1.12 µM | TGI (DU-145 prostate): 9.42 µM | GI50 (EKVX NSCLC): 2.24 µM | TGI (EKVX NSCLC): 13 µM | GI50 (HL-60(TB) leukemia): 2.47 µM | TGI (HL-60(TB) leukemia): 12.8 µM | GI50 (SNB-75 CNS): 1.41 µM | TGI (SNB-75 CNS): 8.29 µM | GI50 (HOP-62 NSCLC): 1.24 µM | TGI (HOP-62 NSCLC): 6.73 µM | GI50 (UO-31 renal): 1.71 µM | TGI (UO-31 renal): 13.9 µM | GI50 (SK-MEL-28 melanoma): 3.02 µM | TGI (SK-MEL-28 melanoma): 10.4 µM | GI50 (SR leukemia): 0.207 µM | TGI (SR leukemia): 6.17 µM | GI50 (RXF 393 renal): 1.89 µM | TGI (RXF 393 renal): 8.27 µM | GI50 (HOP-92 NSCLC): 2.6 µM | TGI (HOP-92 NSCLC): 11.9 µM | GI50 (OVCAR-4 ovarian): 2.69 µM | TGI (OVCAR-4 ovarian): 13.6 µM | GI50 (SNB-19 CNS): 1.58 µM | TGI (SNB-19 CNS): 11.8 µM | GI50 (SN12C renal): 0.914 µM | TGI (SN12C renal): 7.87 µM | GI50 (HCT-15 colon): 1.59 µM | TGI (HCT-15 colon): 8.72 µM | GI50 (OVCAR-8 ovarian): 1.47 µM | TGI (OVCAR-8 ovarian): 9.39 µM | GI50 (SK-OV-3 ovarian): 1.8 µM | TGI (SK-OV-3 ovarian): 9.9 µM | GI50 (COLO 205 colon): 1.23 µM | TGI (COLO 205 colon): 7.1 µM | GI50 (NCI-H460 lung): 0.232 µM | TGI (NCI-H460 lung): 5.08 µM | GI50 (MDA-MB-435): 2 µM | TGI (MDA-MB-435): 7.99 µM | GI50 (LOX IMVI melanoma): 0.448 µM | TGI (LOX IMVI melanoma): 1.89 µM | GI50 (OVCAR-3 ovarian): 2.27 µM | TGI (OVCAR-3 ovarian): 11.1 µM | GI50 (TK-10 renal): 1.32 µM | TGI (TK-10 renal): 13.5 µM | GI50 (IGROV1 ovarian): 1.41 µM | TGI (IGROV1 ovarian): 13.1 µM | GI50 (RPMI-8226 leukemia): 1.58 µM | TGI (RPMI-8226 leukemia): 7.82 µM | GI50 (SW-620 colon): 0.407 µM | TGI (SW-620 colon): 7.7 µM | GI50 (U251 CNS): 1.04 µM | TGI (U251 CNS): 7.29 µM | GI50 (KM12 colon): 1.74 µM | TGI (KM12 colon): 10.2 µM | GI50 (UACC-257 melanoma): 3.32 µM | TGI (UACC-257 melanoma): 9.79 µM | GI50 (BT-549 breast): 5.32 µM | TGI (BT-549 breast): 13 µM | GI50 (MDA-MB-231 breast): 2.61 µM | TGI (MDA-MB-231 breast): 11.5 µM | GI50 (ACHN renal): 0.816 µM | TGI (ACHN renal): 3.37 µM | GI50 (CAKI-1 renal): 1.98 µM | TGI (CAKI-1 renal): 12 µM | GI50 (NCI-H23 lung): 1.81 µM | TGI (NCI-H23 lung): 9.75 µM | GI50 (UACC-62 melanoma): 0.767 µM | TGI (UACC-62 melanoma): 3.93 µM | GI50 (NCI-H522 lung): 0.855 µM | TGI (NCI-H522 lung): 3.66 µM | GI50 (OVCAR-5 ovarian): 4.43 µM | TGI (OVCAR-5 ovarian): 27.6 µM | GI50 (A498 renal): 1.24 µM | TGI (A498 renal): 7.88 µM | GI50 (SF-295 CNS): 1.45 µM | TGI (SF-295 CNS): 16.6 µM | GI50 (MALME-3M melanoma): 2.14 µM | TGI (MALME-3M melanoma): 9.3 µM | GI50 (SK-MEL-5 melanoma): 1.58 µM | TGI (SK-MEL-5 melanoma): 7.14 µM | GI50 (SF-268 CNS): 1.46 µM | TGI (SF-268 CNS): 8.76 µM | GI50 (HCC-2998 colon): 3.93 µM | TGI (HCC-2998 colon): 10.6 µM | GI50 (NCI/ADR-RES ovarian): 8.2 µM | TGI (NCI/ADR-RES ovarian): 23.3 µM
